Patent publication US10245272B2, “Transmembrane penetration enhancer” (priority 2010, dated 2019)

Test: Amount of clonazepam in blood, brain and skin after transdermal application (HPLC)
Conditions: rats
Description: In support of another embodiment of the present invention, a supporting experiment was conducted where the backs of 3 white male rats that weighed approximately 150 g. were shaved and the backs of the rats were shaved and washed with lukewarm water and approximately 25 cm^2 of the base of a transmembrane/transdermal penetration enhancer described in Example 14 was administered. The base contained 10 mg of clonazepam and after six hours from the time of the application, the rats were killed and blood, brain and skin were taken from the application area. The amount of clonazepam in the organs and tissues of the killed rats were identified by HPLC method.

[1] = base of Example 14 with 10 mg clonazepam on approx. 25 cm^2, six hours after application

## O=C1CN=C(c2ccccc2Cl)c2cc([N+](=O)[O-])ccc2N1 [clonazepam]
[1]
  amount of clonazepam in 1 cm^2 of the skin at the application area: 0.04 ± 0.002 mg
  amount of clonazepam in 1 cm^3 of blood: 0.043 ± 0.002 mg
  amount of clonazepam in 1 g of brain: 0.016 ± 0.001 mg
Base of Example 14 with 10 mg clonazepam, during 6 hours
  amount of penetrated/permeated clonazepam through 25 cm^2 application area: 60 % of applied amount
